Assay results from paper PMC7539012, “Hyperphosphorylated tau aggregation and cytotoxicity modulators screen identified prescription drugs linked to Alzheimer's disease and cognitive functions” (Scientific Reports, 2020).
Structures can show the parent of a compound that is named as a salt.
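Also: 30 µM compound with 6 µM p-tau over 16 h.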

The compounds below were run on T1, 1N4R p-tau (assay: p-tau aggregation modulator screen of 1280-compound library (ThS fluorescence net change over 16 h)). Settings: not given.
T1 construct: made in house; host or cells: E. coli (PIMAX system)
Format: biochemical
In the case of `NCCCCCC(=O)O` [Aminocaproic acid], the ThS net change is reported as 456. Work on `COCCCC/C(=N\OCCN)c1ccc(C(F)(F)F)cc1` [Fluvoxamine maleate] yielded a ThS net change of 420. Work on `CC(=O)[C@H]1CC[C@H]2[C@@H]3CC[C@H]4C[C@H](O)CC[C@]4(C)[C@H]3C(=O)C[C@]12C` [Alfaxalone] yielded a ThS net change of 420.

Same assay, conditions: 1280-compound library screen; ThS fluorescence net change over 16 h
For `COc1ccc(/C=C/C(=O)Nc2ccccc2C(=O)O)cc1OC` [Tranilast], the ThS net change was 392. Work on `NC(=O)c1cccnc1` [Nicotinamide] yielded a ThS net change of 406. Compound `c1ccc(CN(CC2=NCCN2)c2ccccc2)cc1` [Antazoline hydrochloride] has a ThS net change of 399. For `CCOC(=O)C1=C(C)NC(C)=C(C(=O)OC)C1c1cccc(Cl)c1Cl` (stereo not shown) [Felodipine], the ThS net change was 405. In the case of `CCN1CCC[C@H]1CNC(=O)c1c(O)c(Cl)cc(Cl)c1OC` [Raclopride], the ThS net change is reported as 382. With `CO[C@@]1(NC(=O)C2SC(=C(C(N)=O)C(=O)O)S2)C(=O)N2C(C(=O)O)=C(CSc3nnnn3C)CS[C@@H]21` (stereo partly shown) [Cefotetan] the ThS net change was 392. `CCN(CC)CCNC(=O)c1ccc(N)cc1` [Procainamide hydrochloride] was tested, and the ThS net change was 379. `CCN(CC)C(=O)Nc1ccc(OCC(O)CNC(C)(C)C)c(C(C)=O)c1` (stereo not shown) [Celiprolol HCl] showed a ThS net change of 396. Work on `C[C@@](Cc1ccc(O)c(O)c1)(NN)C(=O)O` [Carbidopa] yielded a ThS net change of 395. `CCN(CC)CCOC(=O)C(c1ccccc1)C1CCCCC1` (stereo not shown) [Drofenine hydrochloride] gave a ThS net change of 388. With `Cl.Cl.Cl.Cl.Cl.NCCNCCNCCNCCN` the ThS net change was 394. `Nc1ccn([C@H]2CC[C@@H](CO)O2)c(=O)n1` [Zalcitabine] showed a ThS net change of 410. In the case of `Cl.Cl.OCCN1CCN(CC/C=C2/c3ccccc3Sc3ccc(Cl)cc32)CC1` [Zuclopenthixol dihydrochloride], the ThS net change is reported as 398. `Cl.Clc1ccc(C(OCCN2CCCCC2)c2ccccc2)cc1` (stereo not shown) [Cloperastine hydrochloride] was tested, and the ThS net change was 386. Work on `COc1ccc(C(=O)N2CCCC2=O)cc1` [Aniracetam] yielded a ThS net change of 408. Work on `NS(=O)(=O)c1cc2c(cc1Cl)N=C(CSCc1ccccc1)NS2(=O)=O` [Benzthiazide] yielded a ThS net change of 399. For `Cl.O=C(OCC(O)CO)c1ccccc1Nc1ccnc2cc(Cl)ccc12` (stereo not shown) [Glafenine hydrochloride], the ThS net change was 412. `C=CCOc1ccccc1OCC(O)CNC(C)C` (stereo not shown) [Oxprenolol hydrochloride] was tested, and the ThS net change was 404.

Same assay, conditions: 1280-compound library screen; […]
With `CN[C@@H]1C[C@@H](c2ccc(Cl)c(Cl)c2)c2ccccc21` [Indatraline hydrochloride] the ThS net change was 388.

Same assay, conditions: library screen, ThS fluorescence net change over 16 h with p-tau
For `CCSc1ccc2c(c1)N(CCCN1CCN(C)CC1)c1ccccc1S2.O=C(O)CC(O)C(=O)O.O=C(O)CC(O)C(=O)O` [Thiethylperazine dimalate], the ThS net change was 317. `CC(=O)c1ccc2c(c1)N(CCCN(C)C)c1ccccc1S2.O=C(O)/C=C\C(=O)O` [Acetopromazine maleate salt] was tested, and the ThS net change was 267. Compound `COC(=O)C1=C(C)NC(C)=C(C(=O)O[C@@H]2CCCN(Cc3ccccc3)C2)[C@@H]1c1cccc([N+](=O)[O-])c1.Cl` (racemic) [Benidipine hydrochloride] has a ThS net change of 259. `CN(C)CCCN1c2ccccc2Sc2ccc(Cl)cc21` [Chlorpromazine hydrochloride] was tested, and the ThS net change was 317.

Same assay, conditions: p-tau aggregation modulator screen of 1280-compound library; ThS fluorescence net change
With `CC1Cc2ccccc2N1NC(=O)c1ccc(Cl)c(S(N)(=O)=O)c1` (stereo not shown) [Indapamide] the ThS net change was 347. In the case of `CCOC(=O)NNc1nncc2ccccc12` [Todralazine hydrochloride], the ThS net change is reported as 334. `CN[C@@H]1[C@H](O[C@H]2[C@H](O[C@H]3[C@H](O)[C@@H](O)[C@H](NC(=N)N)[C@@H](O)[C@@H]3NC(=N)N)O[C@@H](C)[C@]2(O)CO)O[C@@H](CO)[C@H](O)[C@H]1O` [Dihydrostreptomycin sulfate] gave a ThS net change of 331. With `CN(C)CCCO[C@@H]1[C@H]2OC(C)(C)O[C@H]2O[C@@H]1[C@H](O)CO` [Amiprilose hydrochloride] the ThS net change was 367. For `C1CCC(C(CC2CCCCN2)C2CCCCC2)CC1` (stereo not shown) [Perhexiline maleate], the ThS net change was 342. For `CC1(C)NC(=O)N(c2ccc([N+](=O)[O-])c(C(F)(F)F)c2)C1=O` [Nilutamide], the ThS net change was 363. Compound `CNCCCC12CCC(c3ccccc31)c1ccccc12` [Maprotiline hydrochloride] has a ThS net change of 370. Work on `C[C@]12CC[C@@H]3c4ccc(O)cc4CC[C@H]3[C@@H]1CCC2=O` [Estrone] yielded a ThS net change of 344. In the case of `COc1ccc2c(c1)N(C[C@H](C)CN(C)C)c1ccccc1S2.O=C(O)/C=C\C(=O)O` [Methotrimeprazine maleat salt], the ThS net change is reported as 355. With `O=c1c2ccccc2[se]n1-c1ccccc1` [Ebselen] the ThS net change was 348. Work on `CCN1CCN(C(=O)N[C@@H](C(=O)N[C@@H]2C(=O)N3[C@@H]2SC(C)(C)[C@@H]3C(=O)O)c2ccccc2)C(=O)C1=O` [Piperacillin sodium salt] yielded a ThS net change of 354. `C=CCN1CC[C@]23c4c5ccc(O)c4O[C@H]2C(=O)CC[C@@]3(O)[C@H]1C5` [Naloxone hydrochloride] gave a ThS net change of 349. In the case of `Cl.Nc1c(Br)cc(Br)cc1CN[C@H]1CC[C@H](O)CC1` [Ambroxol hydrochloride], the ThS net change is reported as 364. Work on `Cc1ccc(/C(=C\CN2CCCC2)c2ccccn2)cc1.Cl` [Triprolidine hydrochloride] yielded a ThS net change of 360. Compound `CN(C)CCOC(C)(c1ccccc1)c1ccccn1` (stereo not shown) [Doxylamine succinate] has a ThS net change of 367. `Cc1ccc(N(CC2=NCCN2)c2cccc(O)c2)cc1` [Phentolamine hydrochloride] gave a ThS net change of 334. `Cc1ncc([N+](=O)[O-])n1CCO` [Metronidazole] showed a ThS net change of 365.

Same assay, conditions: p-tau aggregation modulator screen of 1280-compound library; […]
In the case of `CC(=O)[C@@]12O[C@](C)(c3ccccc3)O[C@@H]1C[C@H]1[C@@H]3CCC4=CC(=O)CC[C@]4(C)[C@H]3CC[C@@]12C` [Algestone acetophenide], the ThS net change is reported as 336. With `COc1ccc(CN2CCNCC2)c(OC)c1OC` [Trimetazidine dihydrochloride] the ThS net change was 365.

Same assay, conditions: p-tau aggregation modulator screen of the compound library, ThS fluorescence net change
With `COC(=O)Nc1nc2ccc([S+]([O-])c3ccccc3)cc2[nH]1` (stereo not shown) [Oxfendazol] the ThS net change was 433. Work on `CCC(=O)O[C@@H](O[P@](=O)(CCCCc1ccccc1)CC(=O)N1C[C@H](C2CCCCC2)C[C@H]1C(=O)O)C(C)C` [Fosinopril] yielded a ThS net change of 587. `CC(C)OC(=O)CCC/C=C\C[C@@H]1[C@@H](CC[C@@H](O)CCc2ccccc2)[C@H](O)C[C@@H]1O` [Latanoprost] was tested, and the ThS net change was 519. In the case of `O=c1[nH]c(=O)n([C@H]2C[C@H](O)[C@@H](CO)O2)cc1C(F)(F)F` [Trifluridine], the ThS net change is reported as 463. `Nc1ccn([C@@H]2O[C@H](CO)[C@@H](O)C2(F)F)c(=O)n1` [Gemcitabine] was tested, and the ThS net change was 470. `CC(C)(Sc1cc(C(C)(C)C)c(O)c(C(C)(C)C)c1)Sc1cc(C(C)(C)C)c(O)c(C(C)(C)C)c1` [Probucol] was tested, and the ThS net change was 414. `CCOC(=O)C(C)(C)Oc1ccc(Cl)cc1` [Clofibrate] showed a ThS net change of 461. `C[C@@H](c1ncncc1F)[C@](O)(Cn1cncn1)c1ccc(F)cc1F` [Voriconazole] gave a ThS net change of 435. `O=C(O)c1ccccc1Nc1cccc(C(F)(F)F)c1` [Flufenamic acid] was tested, and the ThS net change was 416. Work on `CCC(=O)[C@@]1(C)[C@H](C)C[C@H]2[C@@H]3CCC4=CC(=O)C=C[C@]4(C)[C@H]3[C@@H](O)C[C@@]21C` [Rimexolone] yielded a ThS net change of 434.
